Where only a bound is given, the exact number is not on record here.

This note sets out measurements from ChEMBL document CHEMBL4602709 (ACS Med Chem Lett, 2020).

For data set [1], the target named is Tyrosine-protein kinase ABL1 (Homo sapiens, UniProt P00519). The experiment in a line: Inhibition of human ABL1 assessed as residual activity using EAIYAAPFAKKK as substrate by [gamma-33P]-ATP assay.
Data set [2] in a line: Cytotoxicity against human THLE3 assessed as reduction in cell viability incubated for 72 hrs by Cell Titer Glo 2.0 reagent based assay. To be noted: THLE3 cells.
Data set [3] has as its target Voltage-gated inwardly rectifying potassium channel KCNH2 (Homo sapiens, UniProt Q12809). The experiment in a line: Inhibition of human ERG incubated for 4 hrs by competitive fluorescence tracer binding based assay.
Data set [4] has as its target Proto-oncogene tyrosine-protein kinase Src (Homo sapiens, UniProt P12931). The experiment in a line: Inhibition of SRC (unknown origin) assessed as residual activity incubated for 5 mins in presence of [gamma-33ATP] by scintillation counting based radiometry assay.
A short description of data set [5]: Inhibition of VEGFR (unknown origin) assessed as residual activity incubated for 5 mins in presence of [gamma-33ATP] by scintillation counting based radiometry assay. Also noted: species or system Homo sapiens.
Data set [6] deals with T1, Mitogen-activated protein kinase kinase kinase kinase 3 (Homo sapiens, UniProt Q8IVH8).
T1 sequence (Q8IVH8 whole entry): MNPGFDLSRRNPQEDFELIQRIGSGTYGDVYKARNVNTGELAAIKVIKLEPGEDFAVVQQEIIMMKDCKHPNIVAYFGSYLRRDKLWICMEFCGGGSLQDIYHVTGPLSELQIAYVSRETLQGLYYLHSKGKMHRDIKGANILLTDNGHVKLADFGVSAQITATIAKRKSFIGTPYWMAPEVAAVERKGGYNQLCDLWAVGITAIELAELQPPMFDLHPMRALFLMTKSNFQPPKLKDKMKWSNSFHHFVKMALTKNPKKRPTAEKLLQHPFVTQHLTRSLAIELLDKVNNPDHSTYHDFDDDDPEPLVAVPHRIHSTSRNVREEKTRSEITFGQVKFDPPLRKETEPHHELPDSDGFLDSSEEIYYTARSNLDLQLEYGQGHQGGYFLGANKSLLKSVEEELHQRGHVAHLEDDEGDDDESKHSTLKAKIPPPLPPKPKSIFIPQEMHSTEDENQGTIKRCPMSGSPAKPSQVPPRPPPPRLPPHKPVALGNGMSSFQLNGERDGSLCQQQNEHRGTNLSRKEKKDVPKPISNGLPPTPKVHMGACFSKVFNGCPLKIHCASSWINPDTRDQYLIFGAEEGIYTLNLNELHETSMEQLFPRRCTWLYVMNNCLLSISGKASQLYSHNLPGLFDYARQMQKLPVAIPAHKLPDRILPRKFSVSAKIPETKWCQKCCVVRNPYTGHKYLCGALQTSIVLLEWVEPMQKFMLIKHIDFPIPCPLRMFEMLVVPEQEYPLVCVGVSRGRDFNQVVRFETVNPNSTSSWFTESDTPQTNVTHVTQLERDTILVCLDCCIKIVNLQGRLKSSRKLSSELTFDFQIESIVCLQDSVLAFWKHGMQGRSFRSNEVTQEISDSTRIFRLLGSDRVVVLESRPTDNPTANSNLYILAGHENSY
The experiment in a line: Inhibition of MAP4K3 (unknown origin) assessed as residual activity incubated for 5 mins in presence of [gamma-33ATP] by scintillation counting based radiometry assay.

Chain of Proto-oncogene tyrosine-protein kinase Src (P12931 2-536 limits assumed): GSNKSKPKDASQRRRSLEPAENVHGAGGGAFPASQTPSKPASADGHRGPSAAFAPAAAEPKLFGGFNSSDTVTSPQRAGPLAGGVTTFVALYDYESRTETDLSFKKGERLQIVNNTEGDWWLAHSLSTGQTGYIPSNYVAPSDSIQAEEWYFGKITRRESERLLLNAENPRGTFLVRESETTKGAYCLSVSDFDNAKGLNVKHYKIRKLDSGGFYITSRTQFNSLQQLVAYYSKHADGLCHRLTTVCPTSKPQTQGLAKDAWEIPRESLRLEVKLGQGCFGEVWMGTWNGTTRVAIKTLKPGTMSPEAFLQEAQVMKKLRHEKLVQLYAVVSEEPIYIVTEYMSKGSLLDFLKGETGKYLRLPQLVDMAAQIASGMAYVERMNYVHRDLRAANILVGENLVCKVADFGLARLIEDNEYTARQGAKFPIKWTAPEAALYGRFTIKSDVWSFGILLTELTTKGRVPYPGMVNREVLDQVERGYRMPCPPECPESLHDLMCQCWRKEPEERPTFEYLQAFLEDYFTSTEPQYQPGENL
Chain of Tyrosine-protein kinase ABL1 (P00519 whole entry): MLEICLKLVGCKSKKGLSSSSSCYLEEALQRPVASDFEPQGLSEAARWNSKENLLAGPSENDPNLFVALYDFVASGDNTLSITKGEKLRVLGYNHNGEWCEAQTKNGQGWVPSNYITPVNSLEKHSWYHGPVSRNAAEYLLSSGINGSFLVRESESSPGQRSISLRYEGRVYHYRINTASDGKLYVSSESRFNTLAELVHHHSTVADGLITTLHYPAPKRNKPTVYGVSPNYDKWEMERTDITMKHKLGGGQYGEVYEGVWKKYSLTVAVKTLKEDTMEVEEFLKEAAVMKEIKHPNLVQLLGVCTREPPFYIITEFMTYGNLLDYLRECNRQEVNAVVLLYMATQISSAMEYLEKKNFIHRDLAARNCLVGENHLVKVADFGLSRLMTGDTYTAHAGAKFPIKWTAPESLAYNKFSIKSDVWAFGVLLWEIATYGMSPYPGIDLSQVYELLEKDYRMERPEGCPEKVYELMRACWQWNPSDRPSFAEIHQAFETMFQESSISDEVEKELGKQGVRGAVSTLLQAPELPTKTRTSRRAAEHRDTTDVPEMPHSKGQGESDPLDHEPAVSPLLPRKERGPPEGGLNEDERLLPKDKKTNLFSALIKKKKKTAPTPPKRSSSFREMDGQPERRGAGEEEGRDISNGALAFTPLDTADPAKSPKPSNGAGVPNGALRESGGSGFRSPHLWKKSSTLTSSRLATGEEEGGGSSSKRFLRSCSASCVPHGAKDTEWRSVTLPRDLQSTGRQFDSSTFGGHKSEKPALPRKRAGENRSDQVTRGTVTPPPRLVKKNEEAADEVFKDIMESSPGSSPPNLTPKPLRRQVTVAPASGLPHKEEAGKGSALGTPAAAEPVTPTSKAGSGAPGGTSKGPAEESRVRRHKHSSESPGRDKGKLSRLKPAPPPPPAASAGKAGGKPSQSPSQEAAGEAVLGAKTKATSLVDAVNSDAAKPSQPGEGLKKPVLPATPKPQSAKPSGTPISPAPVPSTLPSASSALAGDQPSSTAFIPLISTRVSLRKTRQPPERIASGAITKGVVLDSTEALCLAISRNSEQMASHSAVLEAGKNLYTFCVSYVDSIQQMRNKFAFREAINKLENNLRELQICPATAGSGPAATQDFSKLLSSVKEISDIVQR
Chain of Voltage-gated inwardly rectifying potassium channel KCNH2 (Q12809 whole entry): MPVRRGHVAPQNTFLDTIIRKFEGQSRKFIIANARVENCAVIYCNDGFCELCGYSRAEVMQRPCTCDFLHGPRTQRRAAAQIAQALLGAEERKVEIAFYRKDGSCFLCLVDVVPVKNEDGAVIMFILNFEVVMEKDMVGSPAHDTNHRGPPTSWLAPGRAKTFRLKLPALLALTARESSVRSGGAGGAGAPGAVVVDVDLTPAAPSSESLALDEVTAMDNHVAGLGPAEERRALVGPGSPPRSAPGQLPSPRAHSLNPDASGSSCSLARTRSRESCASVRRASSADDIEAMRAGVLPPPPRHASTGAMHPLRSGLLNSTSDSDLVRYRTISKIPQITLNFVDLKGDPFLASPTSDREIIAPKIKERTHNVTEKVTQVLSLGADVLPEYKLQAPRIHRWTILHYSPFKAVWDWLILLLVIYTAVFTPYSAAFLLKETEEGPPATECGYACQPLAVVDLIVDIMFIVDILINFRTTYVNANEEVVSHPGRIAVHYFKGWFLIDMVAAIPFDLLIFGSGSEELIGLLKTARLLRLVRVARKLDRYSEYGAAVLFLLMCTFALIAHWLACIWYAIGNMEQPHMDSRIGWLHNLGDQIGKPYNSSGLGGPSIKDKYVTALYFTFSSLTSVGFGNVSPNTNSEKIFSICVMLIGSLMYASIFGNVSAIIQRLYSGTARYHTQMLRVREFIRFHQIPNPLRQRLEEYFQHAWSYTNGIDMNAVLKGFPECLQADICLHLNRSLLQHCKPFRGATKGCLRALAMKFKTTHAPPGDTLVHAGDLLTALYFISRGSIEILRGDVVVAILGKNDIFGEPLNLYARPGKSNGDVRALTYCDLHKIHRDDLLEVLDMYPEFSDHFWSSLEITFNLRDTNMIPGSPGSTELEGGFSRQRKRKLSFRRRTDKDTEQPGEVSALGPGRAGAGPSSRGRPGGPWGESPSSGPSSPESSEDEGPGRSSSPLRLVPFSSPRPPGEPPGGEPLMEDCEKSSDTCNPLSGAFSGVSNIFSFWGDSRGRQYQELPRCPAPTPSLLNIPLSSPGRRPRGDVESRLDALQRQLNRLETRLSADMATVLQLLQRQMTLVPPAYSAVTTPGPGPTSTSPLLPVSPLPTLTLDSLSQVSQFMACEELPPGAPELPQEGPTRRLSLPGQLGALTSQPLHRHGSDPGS

With `Cc1ccc(C(=O)Nc2ccc(CN3Cc4cn[nH]c4C3)c(Cl)c2)cc1C#Cc1cnc2cccnn12`, the IC50 (commonly the concentration that gives 50% inhibition) in data set [1] was determined as 8.31 nM; in data set [3], 12100 nM; in data set [4], 431 nM; in data set [5] it was 44.8 nM; in data set [6], 240 nM. In addition, the CC50 (usually the concentration at which the toxic effect on the cells reaches its halfway point) at 72 h in data set [2] was greater than 50000 nM.
